In the supplement of paper PMC10307832:

Compound: O=C(Nc1cc(C(F)(F)F)cc(C(F)(F)F)c1)c1cc(Cl)ccc1O [IMD-0354] + C[C@@H](Oc1cc(-c2cnn(C3CCNCC3)c2)cnc1N)c1c(Cl)ccc(F)c1Cl [Crizotinib] (partner 1 µM)
Experiment: relative viability (nuclei count vs DMSO), 5 days (fraction); higher = more cells survive
Conditions: first compound 0.04 µM
In short: (§1)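 Lung cancer cell lines were seeded in 1536-well plates and dosed by pin tool the next day, with either a single drug or a fixed anchor-drug dose combined with five library-drug doses (not always all listed) spaced in √10 steps. Five days later, one step fixed the cells and stained their nuclei (final 0.05% Triton X-100, 1% formaldehyde, 1 ug/ml Hoechst), and nuclei were counted on 4× images. Relative viability is the nuclei count in treated wells divided by the count in vehicle wells, and each value is the median of duplicate plates.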

Cell Line | relative viability
HOP-62 | 0.999
HCC-44 | 0.893
LU99A | 0.453
BEN | 0.856
HARA | 1.05
HCC-78 | 0.317
NCI-H322M | 1.06
NCI-H2009 | 1.1
A-427 | 0.877
NCI-H441 | 0.573
NCI-H661 | 1.07
NCI-H1734 | 0.803
NCI-H460 | 0.892
NCI-H2347 | 0.752
SW 1573 | 0.819
201T | 1.09
NCI-H1915 | 0.787
HCC-827 | 1
LXF-289 | 0.834
NCI-H23 | 0.719
NCI-H647 | 1.37
NCI-H1651 | 0.765
EPLC-272H | 1.04
NCI-H1792 | 1.14
NCI-H1355 | 1.29
NCI-H3122 | 0.298
NCI-H1437 | 1.02
NCI-H1755 | 0.925

Same assay, conditions: first compound 0.1265 µM

Cell Line | relative viability
LOU-NH91 | 0.732
ChaGo-K-1 | 1.26
NCI-H2405 | 0.86
HOP-62 | 1.09
HCC-44 | 0.785
LU99A | 0.62
BEN | 0.8
HARA | 0.921
HCC-78 | 0.323
NCI-H322M | 0.972
LCLC-97TM1 | 0.432
NCI-H2009 | 0.981
A-427 | 0.793
NCI-H441 | 0.713
NCI-H661 | 1.2
NCI-H1734 | 0.685

Cell Line | relative viability
NCI-H460 | 0.808
NCI-H2347 | 0.654
SW 1573 | 0.763
201T | 1.02
NCI-H1915 | 0.906
HCC-827 | 0.881
LXF-289 | 0.803
NCI-H23 | 0.522
NCI-H647 | 1.2
NCI-H1651 | 0.87
EPLC-272H | 0.787
NCI-H1792 | 0.959
NCI-H1355 | 1.04
NCI-H3122 | 0.29
NCI-H1437 | 0.905
NCI-H1755 | 0.965

Same assay, conditions: first compound 0.4 µM

Cell Line | relative viability
LOU-NH91 | 0.538
ChaGo-K-1 | 0.788
NCI-H2405 | 0.491
HOP-62 | 0.926
HCC-44 | 0.361
LU99A | 0.482
BEN | 0.463
HARA | 0.53
HCC-78 | 0.251
NCI-H322M | 0.811
LCLC-97TM1 | 0.211
NCI-H2009 | 0.698
A-427 | 0.519
NCI-H441 | 0.514
NCI-H661 | 0.869
NCI-H1734 | 0.4

Cell Line | relative viability
NCI-H460 | 0.243
NCI-H2347 | 0.62
SW 1573 | 0.408
201T | 0.815
NCI-H1915 | 0.527
HCC-827 | 0.736
LXF-289 | 0.575
NCI-H23 | 0.376
NCI-H647 | 0.505
NCI-H1651 | 0.575
EPLC-272H | 0.67
NCI-H1792 | 0.696
NCI-H1355 | 0.956
NCI-H3122 | 0.281
NCI-H1437 | 0.548
NCI-H1755 | 0.46

Same assay, conditions: first compound 1.265 µM

Cell Line | relative viability
LOU-NH91 | 0.345
ChaGo-K-1 | 0.398
NCI-H2405 | 0.572
HOP-62 | 0.546
HCC-44 | 0.169
LU99A | 0.214
BEN | 0.366
HARA | 0.158
HCC-78 | 0.37
NCI-H322M | 0.851
LCLC-97TM1 | 0.265
NCI-H2009 | 0.165
A-427 | 0.185
NCI-H441 | 0.363
NCI-H661 | 0.524
NCI-H1734 | 0.422

Cell Line | relative viability
NCI-H460 | 0.142
NCI-H2347 | 0.395
SW 1573 | 0.268
201T | 1
NCI-H1915 | 0.434
HCC-827 | 0.498
LXF-289 | 0.229
NCI-H23 | 0.378
NCI-H647 | 0.168
NCI-H1651 | 0.609
EPLC-272H | 0.822
NCI-H1792 | 0.512
NCI-H1355 | 0.97
NCI-H3122 | 0.202
NCI-H1437 | 0.238
NCI-H1755 | 0.31

Same assay, conditions: first compound 4 µM

Cell Line | relative viability
LOU-NH91 | 0.287
ChaGo-K-1 | 0.433
NCI-H2405 | 0.304
HOP-62 | 0.168
HCC-44 | 0.169
LU99A | 0.203
BEN | 0.299
HARA | 0.208
HCC-78 | 0.189
NCI-H322M | 0.257
LCLC-97TM1 | 0.146
NCI-H2009 | 0.111
A-427 | 0.139
NCI-H441 | 0.202
NCI-H661 | 0.317
NCI-H1734 | 0.244

Cell Line | relative viability
NCI-H460 | 0.0357
NCI-H2347 | 0.365
SW 1573 | 0.115
201T | 0.389
NCI-H1915 | 0.194
HCC-827 | 0.263
LXF-289 | 0.069
NCI-H23 | 0.264
NCI-H647 | 0.185
NCI-H1651 | 0.128
EPLC-272H | 0.225
NCI-H1792 | 0.391
NCI-H1355 | 0.242
NCI-H3122 | 0.167
NCI-H1437 | 0.207
NCI-H1755 | 0.17

Compound: Cc1cnc(CNC(=O)c2c(=O)c3ccc(N4CCCN(C)CC4)nc3n3c2sc2ccccc23)cn1 [CX-5461] + Nc1ncn([C@H]2C[C@H](O)[C@@H](CO)O2)c(=O)n1 [Decitabine] (partner 2 µM)
Experiment: as above
Conditions: first compound 0.01 µM
In short: as §1

Cell Line | relative viability
LOU-NH91 | 0.844
ChaGo-K-1 | 0.554
NCI-H2405 | 0.829
HOP-62 | 0.243
HCC-44 | 0.946
LU99A | 0.925
BEN | 0.757
HARA | 0.595
HCC-78 | 0.678
NCI-H322M | 0.716
LCLC-97TM1 | 0.225
NCI-H2009 | 0.41
A-427 | 0.593
NCI-H441 | 0.234
NCI-H661 | 0.523
NCI-H1734 | 0.509

Cell Line | relative viability
NCI-H460 | 0.551
NCI-H2347 | 0.628
SW 1573 | 0.474
201T | 0.861
NCI-H1915 | 0.266
HCC-827 | 0.339
LXF-289 | 0.412
NCI-H23 | 0.371
NCI-H647 | 0.443
NCI-H1651 | 0.598
EPLC-272H | 0.358
NCI-H1792 | 0.664
NCI-H1355 | 0.356
NCI-H3122 | 0.407
NCI-H1437 | 0.603
NCI-H1755 | 0.782

Same assay, conditions: first compound 0.03162 µM

Cell Line | relative viability
LOU-NH91 | 0.866
ChaGo-K-1 | 0.485
NCI-H2405 | 0.779
HOP-62 | 0.23
HCC-44 | 1.02
LU99A | 0.958
BEN | 0.706
HARA | 0.429
HCC-78 | 0.678
NCI-H322M | 0.701
LCLC-97TM1 | 0.233
NCI-H2009 | 0.374
A-427 | 0.603
NCI-H441 | 0.206
NCI-H661 | 0.531
NCI-H1734 | 0.489

Cell Line | relative viability
NCI-H460 | 0.429
NCI-H2347 | 0.638
SW 1573 | 0.41
201T | 0.849
NCI-H1915 | 0.259
HCC-827 | 0.337
LXF-289 | 0.377
NCI-H23 | 0.344
NCI-H647 | 0.461
NCI-H1651 | 0.554
EPLC-272H | 0.425
NCI-H1792 | 0.67
NCI-H1355 | 0.34
NCI-H3122 | 0.387
NCI-H1437 | 0.556
NCI-H1755 | 0.763

Same assay, conditions: first compound 0.1 µM

Cell Line | relative viability
LOU-NH91 | 0.79
ChaGo-K-1 | 0.547
NCI-H2405 | 0.773
HOP-62 | 0.171
HCC-44 | 0.887
LU99A | 0.923
BEN | 0.711
HARA | 0.559
HCC-78 | 0.595
NCI-H322M | 0.637
LCLC-97TM1 | 0.238
NCI-H2009 | 0.335
A-427 | 0.52
NCI-H441 | 0.214
NCI-H661 | 0.458
NCI-H1734 | 0.557

Cell Line | relative viability
NCI-H460 | 0.228
NCI-H2347 | 0.625
SW 1573 | 0.114
201T | 0.885
NCI-H1915 | 0.284
HCC-827 | 0.342
LXF-289 | 0.404
NCI-H23 | 0.363
NCI-H647 | 0.325
NCI-H1651 | 0.452
EPLC-272H | 0.396
NCI-H1792 | 0.646
NCI-H1355 | 0.395
NCI-H3122 | 0.354
NCI-H1437 | 0.545
NCI-H1755 | 0.66

Same assay, conditions: first compound 0.3162 µM

Cell Line | relative viability
LOU-NH91 | 0.613
ChaGo-K-1 | 0.543
NCI-H2405 | 0.64
HOP-62 | 0.191
HCC-44 | 0.939
LU99A | 0.594
BEN | 0.652
HARA | 0.587
HCC-78 | 0.694
NCI-H322M | 0.572
LCLC-97TM1 | 0.208
NCI-H2009 | 0.37
A-427 | 0.269
NCI-H441 | 0.275
NCI-H661 | 0.429
NCI-H1734 | 0.483
NCI-H460 | 0.391
NCI-H2347 | 0.604
SW 1573 | 0.392
201T | 0.814
NCI-H1915 | 0.244
HCC-827 | 0.282
NCI-H23 | 0.299
NCI-H647 | 0.417
NCI-H1651 | 0.588
NCI-H1792 | 0.542
NCI-H1355 | 0.371
NCI-H3122 | 0.515
NCI-H1437 | 0.51
NCI-H1755 | 0.687

Same assay, conditions: first compound 1 µM

Cell Line | relative viability
LOU-NH91 | 0.783
ChaGo-K-1 | 0.431
NCI-H2405 | 0.608
HOP-62 | 0.207
HCC-44 | 0.837
LU99A | 0.79
BEN | 0.545
HARA | 0.526
HCC-78 | 0.565
NCI-H322M | 0.614
LCLC-97TM1 | 0.229
NCI-H2009 | 0.308
A-427 | 0.481
NCI-H441 | 0.191
NCI-H661 | 0.383
NCI-H1734 | 0.483

Cell Line | relative viability
NCI-H460 | 0.0313
NCI-H2347 | 0.589
SW 1573 | 0.214
201T | 0.834
NCI-H1915 | 0.283
HCC-827 | 0.3
LXF-289 | 0.351
NCI-H23 | 0.268
NCI-H647 | 0.15
NCI-H1651 | 0.158
EPLC-272H | 0.297
NCI-H1792 | 0.534
NCI-H1355 | 0.348
NCI-H3122 | 0.417
NCI-H1437 | 0.435
NCI-H1755 | 0.69
